Data reported in ChEMBL document CHEMBL4387747, “Discovery of naphthacemycins as a novel class of PARP1 inhibitors” (Bioorg Med Chem Lett, 2019).
The source made the active and inactive calls. No cut-off for these calls is given here.

Assays:
[1] = molecular target: T1, Poly [ADP-ribose] polymerase 1 (Homo sapiens, UniProt P09874); assay: Inhibition of recombinant human full length C-terminal His-tagged PARP1 expressed in Sf9 insect cells preincubated for 15 mins followed by NAD+ addition and measured after 40 mins by fluorescence based assay
T1 sequence (P09874 whole entry): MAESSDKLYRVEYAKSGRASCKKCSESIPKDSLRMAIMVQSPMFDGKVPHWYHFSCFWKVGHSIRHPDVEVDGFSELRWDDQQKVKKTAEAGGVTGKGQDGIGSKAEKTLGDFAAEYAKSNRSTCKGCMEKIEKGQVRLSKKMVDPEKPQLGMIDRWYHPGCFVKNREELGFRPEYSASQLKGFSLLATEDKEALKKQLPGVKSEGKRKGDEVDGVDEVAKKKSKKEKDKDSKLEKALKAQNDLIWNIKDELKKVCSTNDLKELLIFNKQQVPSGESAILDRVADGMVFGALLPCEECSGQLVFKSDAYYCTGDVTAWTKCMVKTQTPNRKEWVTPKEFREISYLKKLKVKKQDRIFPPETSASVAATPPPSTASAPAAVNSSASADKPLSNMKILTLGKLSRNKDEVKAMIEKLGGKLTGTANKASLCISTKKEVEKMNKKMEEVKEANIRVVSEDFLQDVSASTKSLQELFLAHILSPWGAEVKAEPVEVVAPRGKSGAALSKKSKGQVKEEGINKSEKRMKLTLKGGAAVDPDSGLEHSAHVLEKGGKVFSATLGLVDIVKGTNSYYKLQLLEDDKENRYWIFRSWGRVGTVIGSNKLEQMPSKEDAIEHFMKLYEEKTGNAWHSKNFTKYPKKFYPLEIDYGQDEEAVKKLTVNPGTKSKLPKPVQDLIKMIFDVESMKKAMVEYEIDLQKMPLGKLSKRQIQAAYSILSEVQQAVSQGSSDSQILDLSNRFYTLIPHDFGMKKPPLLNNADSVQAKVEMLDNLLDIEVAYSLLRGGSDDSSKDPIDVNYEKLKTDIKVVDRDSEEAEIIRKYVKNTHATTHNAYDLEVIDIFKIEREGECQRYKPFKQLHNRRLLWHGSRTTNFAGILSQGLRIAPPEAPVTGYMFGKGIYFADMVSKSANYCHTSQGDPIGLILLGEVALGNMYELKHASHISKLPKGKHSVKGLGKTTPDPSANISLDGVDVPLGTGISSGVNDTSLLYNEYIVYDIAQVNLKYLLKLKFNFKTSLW

MCF7 = assay: cells; settings: Homo sapiens
MDA-MB-231 = assay: cells; settings: Homo sapiens
MDA-MB-436 [2] = tested on: MDA-MB-436
[3] = molecular target: T1, Poly [ADP-ribose] polymerase 1; assay: Inhibition of PARP1 in human MDA-MB-231 cells assessed as decrease in PAR expression level incubated for 3 hrs by Western blot analysis; assay type: cell-based
[4] = molecular target: T1, Poly [ADP-ribose] polymerase 1; assay: Inhibition of PARP1 in human MDA-MB-436 cells harboring BRCA1 mutation assessed as increase in gammaH2AX expression level incubated for 24 hrs by Western blot analysis; assay type: cell-based
[5] = molecular target: T1, Poly [ADP-ribose] polymerase 1; assay: Inhibition of PARP1 in human MDA-MB-436 cells harboring BRCA1 mutation assessed as decrease in PAR expression level incubated for 3 hrs by Western blot analysis; assay type: cell-based
[6] = molecular target: T1, Poly [ADP-ribose] polymerase 1; assay: Inhibition of PARP1 in MMS treated human MDA-MB-436 cells harboring BRCA1 mutation assessed as increase in PARP1 trapping in chromatin-bound fraction incubated for 4 hrs by Western blot analysis; assay type: cell-based
MDA-MB-436 [7] = assay: Effect on whole cell PARP1 protein levels in MMS treated human MDA-MB-436 cells harboring BRCA1 mutation at 5 to 45 uM incubated for 4 hrs by Western blot analysis; assay type: functional, cell-based
[8] = molecular target: T1, Poly [ADP-ribose] polymerase 1; assay: Inhibition of PARP1 in human MDA-MB-231 cells assessed as increase in gammaH2AX expression level incubated for 24 hrs by Western blot analysis; assay type: cell-based

Compound | IC50 [1] [µM] | IC50 (MCF7) [µM] | IC50 (MDA-MB-231) [µM] | IC50 (MDA-MB-436 [2]) [µM] | inhibition [3] | inhibition [4] | inhibition [5] | inhibition [6] | Activity (MDA-MB-436 [7]) | inhibition [8]
COc1cc(O)cc(C)c1-c1cc(O)cc2cc3c(c(O)c12)C(=O)c1c(cc(O)c(Cl)c1O)C3(C)C | 15.4 | > 40 | > 40 | 20.2 | – | – | – | – | – | –
O=C(c1cc(Cc2n[nH]c(=O)c3ccccc23)ccc1F)N1CCN(C(=O)C2CC2)CC1 [OLAPARIB] | – | > 40 | > 40 | 0.22 | – | – | – | – | – | –
COc1cc(O)c(Cl)c(C)c1-c1cc(O)cc2cc3c(c(O)c12)C(=O)c1c(O)c(Cl)c(O)c(Cl)c1C3(C)C | 0.95 | > 40 | > 40 | 3.82 | Dose-dependent effect | Dose-dependent effect | Dose-dependent effect | Dose-dependent effect | inactive | Dose-dependent effect
COc1cc(O)c(Cl)c(C)c1-c1cc(O)cc2cc3c(c(O)c12)C(=O)c1c(cc(O)c(Cl)c1O)C3(C)C | 8.84 | 16.5 | 18.8 | 9.2 | – | – | – | – | – | –
COc1cc(O)c(Cl)c(C)c1-c1cc(O)c(Br)c2cc3c(c(O)c12)C(=O)c1c(O)cc(O)cc1C3(C)C | 4.59 | > 40 | > 40 | 12.9 | – | – | – | – | – | –
COc1cc(O)c(Cl)c(C)c1-c1cc(O)c(Cl)c2cc3c(c(O)c12)C(=O)c1c(O)c(Cl)c(O)c(Cl)c1C3(C)C | 5.88 | > 40 | > 40 | 9.27 | – | – | – | – | – | –
COc1c(Cl)c(O)c(Cl)c(C)c1-c1cc(O)c(Cl)c2cc3c(c(O)c12)C(=O)c1c(O)c(Cl)c(O)c(Cl)c1C3(C)C | 1.82 | 28.8 | > 40 | 4.95 | – | – | – | – | – | –
COc1cc(O)c(Cl)c(C)c1-c1cc(O)cc2cc3c(c(O)c12)C(=O)c1c(O)cc(O)cc1C3(C)C | 4.86 | > 40 | > 40 | 10.5 | – | – | – | – | – | –
COc1cc(O)c(Cl)c(C)c1-c1cc(O)c(Cl)c2cc3c(c(O)c12)C(=O)c1c(cc(O)c(Cl)c1O)C3(C)C | 6.56 | > 40 | > 40 | 8.61 | – | – | – | – | – | –
